In ChEMBL document CHEMBL1201862, “PubChem BioAssay data set” (2004):
Blank lines part the entries; values can stand above or below the compound they belong to. Activity calls are given as the source filed them. Cut-off read from the data, not from the text of the source, for most assays here: actives have a measured IC50 and inactives only a lower limit.

Key:
[1] = target: Metabotropic glutamate receptor 4 (Rattus norvegicus, UniProt P31423); assay: Modulation of the Metabotropic Glutamate Receptor mGluR4: Rat PAM Potency. [Related pubchem assays (depositor defined):AID2437, AID2807]; assay type: functional
HEK293 = assay: cells; conditions: Homo sapiens;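 note: cells exposed to compound for 14 hours overnight before viability readout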
[2] = target: Nucleotide-binding oligomerization domain-containing protein 2 (Homo sapiens, UniProt Q9HC29); assay: PubChem AID 2334; assay type: functional
[3] = target: T1, Nucleotide-binding oligomerization domain-containing protein 1 (Homo sapiens, UniProt Q9Y239); assay: NOD1 signaling inhibitors, SAR follow-up, revised (AID 2333); assay type: functional
T1 sequence (Q9Y239 whole entry): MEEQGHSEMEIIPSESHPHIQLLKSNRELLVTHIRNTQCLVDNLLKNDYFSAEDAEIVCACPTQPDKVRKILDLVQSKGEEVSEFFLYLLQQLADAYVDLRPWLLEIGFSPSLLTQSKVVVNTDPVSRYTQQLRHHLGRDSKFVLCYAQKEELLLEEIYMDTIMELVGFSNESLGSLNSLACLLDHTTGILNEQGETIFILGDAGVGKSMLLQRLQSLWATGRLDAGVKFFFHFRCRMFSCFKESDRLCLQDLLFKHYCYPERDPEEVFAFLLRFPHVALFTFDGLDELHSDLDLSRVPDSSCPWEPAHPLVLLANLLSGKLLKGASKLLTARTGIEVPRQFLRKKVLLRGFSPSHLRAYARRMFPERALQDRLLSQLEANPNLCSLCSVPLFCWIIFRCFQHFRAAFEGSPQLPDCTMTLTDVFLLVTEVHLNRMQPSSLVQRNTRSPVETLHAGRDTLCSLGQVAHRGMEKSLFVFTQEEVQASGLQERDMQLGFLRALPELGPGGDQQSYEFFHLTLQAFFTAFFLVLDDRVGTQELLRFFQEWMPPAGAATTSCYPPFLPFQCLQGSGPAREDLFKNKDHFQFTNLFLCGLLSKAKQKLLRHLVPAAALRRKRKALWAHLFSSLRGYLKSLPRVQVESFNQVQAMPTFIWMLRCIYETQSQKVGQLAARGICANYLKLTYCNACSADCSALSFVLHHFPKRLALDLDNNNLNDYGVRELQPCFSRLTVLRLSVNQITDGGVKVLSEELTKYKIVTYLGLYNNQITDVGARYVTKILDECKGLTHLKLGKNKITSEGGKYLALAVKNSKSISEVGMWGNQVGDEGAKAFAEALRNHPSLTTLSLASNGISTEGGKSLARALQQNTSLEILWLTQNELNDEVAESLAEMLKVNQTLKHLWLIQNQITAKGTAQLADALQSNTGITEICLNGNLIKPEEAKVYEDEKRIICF

Tumor necrosis factor = Tumor necrosis factor (Homo sapiens, UniProt P01375); assay: TNFa-triggered NF-kB activation inhibitors, SAR follow-up, cell-based, revised (AID 2337); assay type: functional
[4] = inhibitors of clade B AD8 Env fusion, dose response, cell-based, cherry-pick (AID 652062); assay type: functional;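 note: luciferase signal from cell-cell fusion driven by HIV-1 clade B AD8 Env; potency is for inhibitors of fusion seen as a drop in luminescence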
[5] = target: Scavenger receptor class B member 1 (Mus musculus, UniProt Q61009); assay: inhibitors of SR-BI mediated HDL lipid uptake, dose response, ldlA[mSR-BI] cells, fluorescence, cherry pick (AID 493194); assay type: functional, cell-based;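 note: cellular uptake of fluorescent DiI-labeled HDL measured as cell fluorescence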
Sequence of Scavenger receptor class B member 1 (Q61009 whole entry): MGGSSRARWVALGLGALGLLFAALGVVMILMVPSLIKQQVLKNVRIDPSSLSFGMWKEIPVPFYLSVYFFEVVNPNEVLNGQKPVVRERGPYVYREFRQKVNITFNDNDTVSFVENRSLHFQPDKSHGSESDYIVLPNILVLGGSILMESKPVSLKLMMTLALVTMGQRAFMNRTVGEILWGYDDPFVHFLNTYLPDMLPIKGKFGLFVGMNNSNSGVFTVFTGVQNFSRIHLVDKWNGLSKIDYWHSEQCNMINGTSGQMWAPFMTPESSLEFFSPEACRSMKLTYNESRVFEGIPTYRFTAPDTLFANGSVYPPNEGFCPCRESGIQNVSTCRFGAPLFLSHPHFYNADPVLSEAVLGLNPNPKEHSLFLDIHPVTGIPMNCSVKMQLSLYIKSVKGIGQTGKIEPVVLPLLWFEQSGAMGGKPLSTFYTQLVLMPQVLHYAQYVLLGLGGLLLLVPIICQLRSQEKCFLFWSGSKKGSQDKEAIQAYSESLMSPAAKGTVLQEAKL

Sequence of Tumor necrosis factor (P01375 whole entry, the tested form may be a part): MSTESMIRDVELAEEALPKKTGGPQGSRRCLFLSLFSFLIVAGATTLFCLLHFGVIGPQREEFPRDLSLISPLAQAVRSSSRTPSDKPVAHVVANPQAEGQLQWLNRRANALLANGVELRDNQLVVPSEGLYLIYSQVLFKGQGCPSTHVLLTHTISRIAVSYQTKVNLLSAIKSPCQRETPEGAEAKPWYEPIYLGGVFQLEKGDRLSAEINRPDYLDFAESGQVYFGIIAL
Sequence of Nucleotide-binding oligomerization domain-containing protein 2 (Q9HC29 whole entry, the tested form may be a part): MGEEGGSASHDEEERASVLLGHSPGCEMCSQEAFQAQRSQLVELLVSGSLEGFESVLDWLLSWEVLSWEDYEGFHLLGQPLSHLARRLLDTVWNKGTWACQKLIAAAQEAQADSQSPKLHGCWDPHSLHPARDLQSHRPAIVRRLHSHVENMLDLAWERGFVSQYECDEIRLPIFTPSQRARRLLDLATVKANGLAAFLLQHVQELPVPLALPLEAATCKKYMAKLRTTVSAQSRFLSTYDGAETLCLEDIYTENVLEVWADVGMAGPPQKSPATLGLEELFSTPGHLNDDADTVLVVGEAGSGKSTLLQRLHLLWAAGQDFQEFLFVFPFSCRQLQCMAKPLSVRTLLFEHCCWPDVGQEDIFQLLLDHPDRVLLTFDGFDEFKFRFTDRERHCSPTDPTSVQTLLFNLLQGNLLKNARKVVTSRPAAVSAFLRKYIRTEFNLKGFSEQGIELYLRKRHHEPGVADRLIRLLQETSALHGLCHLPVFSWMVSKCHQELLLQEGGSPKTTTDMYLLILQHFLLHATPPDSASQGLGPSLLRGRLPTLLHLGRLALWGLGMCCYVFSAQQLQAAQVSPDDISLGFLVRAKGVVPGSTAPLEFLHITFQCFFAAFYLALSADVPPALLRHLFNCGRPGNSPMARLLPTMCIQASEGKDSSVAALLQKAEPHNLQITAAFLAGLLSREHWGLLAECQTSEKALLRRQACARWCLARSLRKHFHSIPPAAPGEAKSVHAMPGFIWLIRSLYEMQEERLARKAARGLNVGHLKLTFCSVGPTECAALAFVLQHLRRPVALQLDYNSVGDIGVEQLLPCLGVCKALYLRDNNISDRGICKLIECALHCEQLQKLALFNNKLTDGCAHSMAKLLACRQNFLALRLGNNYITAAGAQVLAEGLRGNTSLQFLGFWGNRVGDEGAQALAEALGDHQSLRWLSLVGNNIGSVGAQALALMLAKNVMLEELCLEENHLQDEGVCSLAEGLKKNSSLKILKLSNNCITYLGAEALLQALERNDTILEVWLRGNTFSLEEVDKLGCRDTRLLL
Sequence of Metabotropic glutamate receptor 4 (P31423 whole entry): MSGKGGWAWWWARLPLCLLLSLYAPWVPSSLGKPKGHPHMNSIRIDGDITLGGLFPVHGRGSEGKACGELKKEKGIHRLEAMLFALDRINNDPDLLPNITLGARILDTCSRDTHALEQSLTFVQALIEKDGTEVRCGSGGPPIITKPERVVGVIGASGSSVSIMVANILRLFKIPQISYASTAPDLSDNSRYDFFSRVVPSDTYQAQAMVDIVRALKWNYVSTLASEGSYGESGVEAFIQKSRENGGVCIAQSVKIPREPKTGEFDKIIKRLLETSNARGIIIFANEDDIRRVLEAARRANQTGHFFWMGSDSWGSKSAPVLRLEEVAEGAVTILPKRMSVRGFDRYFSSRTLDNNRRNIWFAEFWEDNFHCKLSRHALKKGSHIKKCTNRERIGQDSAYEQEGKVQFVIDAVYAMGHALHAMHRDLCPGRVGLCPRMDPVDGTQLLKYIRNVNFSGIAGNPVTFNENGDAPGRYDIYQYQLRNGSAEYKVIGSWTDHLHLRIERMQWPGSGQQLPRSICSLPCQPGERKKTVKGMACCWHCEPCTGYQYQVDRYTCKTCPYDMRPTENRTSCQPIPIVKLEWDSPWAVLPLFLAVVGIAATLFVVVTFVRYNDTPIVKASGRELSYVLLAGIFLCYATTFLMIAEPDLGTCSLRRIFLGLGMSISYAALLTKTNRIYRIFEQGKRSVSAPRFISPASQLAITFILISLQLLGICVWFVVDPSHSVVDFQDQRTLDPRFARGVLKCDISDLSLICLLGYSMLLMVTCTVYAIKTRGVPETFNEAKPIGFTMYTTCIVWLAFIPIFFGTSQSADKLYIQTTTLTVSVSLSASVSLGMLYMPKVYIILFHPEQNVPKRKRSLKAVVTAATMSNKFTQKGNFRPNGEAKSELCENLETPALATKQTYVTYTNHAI

EC50 [1]: 0.07 µM (active)
Structure (SMILES): O=C(Nc1ccc(N2C(=O)c3ccccc3C2=O)c(Cl)c1)c1ccccn1

Structure (SMILES): Cc1ccc(NC(=O)c2ccc(CN3CCc4ccccc4C3)cc2)cc1
IC50 (HEK293): > 20 µM (inactive)
IC50 [2]: > 20 µM (inactive)
IC50 [3]: 3.44 µM (active)
IC50 (Tumor necrosis factor): > 20 µM (inactive)
AC50 [4]: 5.75 µM (active)

AC50 [5]: 50.2 µM (active)
Structure (SMILES): COCc1cc(=O)oc2cc(NC(=O)c3ccc(C(C)(C)C)cc3)ccc12
